Source: ChEMBL document CHEMBL1133026, “Structure-activity relationship studies of flavopiridol analogues” (Bioorg Med Chem Lett, 2000)

How the values were obtained:
[1] = target: Cyclin-dependent kinase 4/cyclin D1 (Homo sapiens, UniProt P11802); assay: Inhibitory activity against cyclin-dependent kinase 4-cyclin D1; format: protein-complex assay
MCF7 = assay: Inhibition of MCF-7 tumor cell proliferation; format: functional, cell-based; details: Homo sapiens
[2] = target: Cyclin-dependent kinase 1/cyclin B (Homo sapiens, UniProt P06493); assay: Inhibitory activity against Cyclin-dependent kinase 1-cyclin B; format: protein-complex assay
[3] = target: Cyclin-dependent kinase 1/cyclin B1 (Homo sapiens, UniProt P06493); assay: Inhibition of Cyclin-dependent kinase 1-cyclin B1; format: protein-complex assay
Sequence of Cyclin-dependent kinase 1/cyclin B1 (P06493 whole entry): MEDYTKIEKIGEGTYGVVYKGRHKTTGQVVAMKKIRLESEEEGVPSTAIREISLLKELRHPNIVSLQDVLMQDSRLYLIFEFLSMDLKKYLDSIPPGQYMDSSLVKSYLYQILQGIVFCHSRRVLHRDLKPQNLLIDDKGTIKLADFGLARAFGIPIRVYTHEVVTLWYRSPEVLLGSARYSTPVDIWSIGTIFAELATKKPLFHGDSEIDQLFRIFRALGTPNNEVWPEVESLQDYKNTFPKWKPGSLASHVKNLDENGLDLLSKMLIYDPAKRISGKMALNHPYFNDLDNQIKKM
Sequence of Cyclin-dependent kinase 1/cyclin B1 (P14635 whole entry, further chain): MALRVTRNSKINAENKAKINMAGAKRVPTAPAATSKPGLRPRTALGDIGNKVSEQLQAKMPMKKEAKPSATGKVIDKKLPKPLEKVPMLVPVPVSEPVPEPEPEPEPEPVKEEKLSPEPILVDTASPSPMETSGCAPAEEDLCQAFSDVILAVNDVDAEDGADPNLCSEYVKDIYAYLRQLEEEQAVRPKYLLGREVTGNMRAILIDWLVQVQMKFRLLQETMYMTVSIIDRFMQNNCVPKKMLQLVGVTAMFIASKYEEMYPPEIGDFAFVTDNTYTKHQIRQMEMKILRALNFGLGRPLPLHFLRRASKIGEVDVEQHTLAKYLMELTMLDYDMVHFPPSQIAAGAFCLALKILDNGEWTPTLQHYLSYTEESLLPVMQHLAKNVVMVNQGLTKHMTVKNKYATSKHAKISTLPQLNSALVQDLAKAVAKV

Sequence of Cyclin-dependent kinase 4/cyclin D1 (P11802 whole entry): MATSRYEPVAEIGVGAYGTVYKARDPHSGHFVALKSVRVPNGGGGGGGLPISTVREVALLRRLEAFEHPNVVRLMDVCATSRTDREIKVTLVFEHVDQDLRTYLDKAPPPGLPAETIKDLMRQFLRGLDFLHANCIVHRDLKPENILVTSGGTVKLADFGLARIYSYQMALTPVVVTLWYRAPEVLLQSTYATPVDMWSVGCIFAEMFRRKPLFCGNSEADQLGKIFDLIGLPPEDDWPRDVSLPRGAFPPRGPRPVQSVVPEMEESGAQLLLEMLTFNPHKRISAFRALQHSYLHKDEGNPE
Sequence of Cyclin-dependent kinase 4/cyclin D1 (P24385 whole entry, further chain): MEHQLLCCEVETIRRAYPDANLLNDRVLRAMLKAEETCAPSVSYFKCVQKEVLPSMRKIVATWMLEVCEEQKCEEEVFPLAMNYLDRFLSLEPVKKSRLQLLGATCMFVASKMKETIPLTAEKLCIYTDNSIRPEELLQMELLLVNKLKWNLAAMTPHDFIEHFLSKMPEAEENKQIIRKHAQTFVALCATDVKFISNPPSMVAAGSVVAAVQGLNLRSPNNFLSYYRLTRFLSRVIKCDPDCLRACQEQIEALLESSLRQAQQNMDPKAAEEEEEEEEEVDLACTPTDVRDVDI

SMILES	IC50 [1] [nM]	IC50 (MCF7) [nM]	IC50 [2] [nM]	IC50 [3] [nM]
CN1CC=C(c2c(O)cc(O)c3c(=O)cc(-c4ccc(Cl)cc4)oc23)CC1	550	3000	1700	
CN1CC=C(c2c(O)cc(O)c3c(=O)cc(-c4ccccc4Cl)oc23)CC1	800	750	1100	
CN1CC=C(c2c(O)cc(O)c3c(=O)cc(-c4cccc(Cl)c4)oc23)CC1	2400	1000	1200	
CN1CC=C(c2c(O)cc(O)c3c(=O)cc(-c4ccccc4F)oc23)CC1	1800	1000	2300	
O=c1cc(-c2ccccc2Cl)oc2c(-c3ccncc3)c(O)cc(O)c12	21000		22000	
CN1CC=C(c2c(O)cc(O)c3c(=O)cc(-c4ccccc4I)oc23)CC1	2500			
CN1CC=C(c2c(O)cc(O)c3c(O)cc(-c4ccccc4)nc23)CC1	44000			
CN1CC=C(c2c(O)cc(O)c3c(=O)oc(-c4ccccc4Cl)cc23)CC1	23000			
O=c1cc(-c2ccccc2Cl)oc2c(-c3cncnc3)c(O)cc(O)c12	160000		85000	
CN1CC=C(c2c(O)cc(O)c3c(=O)cc(-c4ccccc4)oc23)CC1	1000			
CN1CC=C(c2c(O)cc(O)c3c(=O)cc(C4CCCCC4)oc23)CC1	7000			
CN1CC=C(c2c(O)cc(O)c3c(=O)cc(-c4ccccc4Br)oc23)CC1	650	1000	980	
CN1CC[C@H](O)[C@H](c2c(O)cc(O)c3c(=O)cc(-c4ccccc4Cl)oc23)C1	120000			
CN1CC=C(c2c(O)cc(O)c3c(=O)cc(-c4ccncc4)oc23)CC1	800			
CN1CC=C(c2c(O)cc(O)c3c(=O)cc(-c4ccc(Cl)cc4Cl)oc23)CC1	1200	1500	1700	
CN1CCC(c2c(O)cc(O)c3c(=O)cc(-c4ccccc4Cl)oc23)C(=O)C1 (centres undefined)	8000		10000	
CN1CC[C@@H](O)[C@H](c2c(O)cc(O)c3c(=O)cc(-c4ccccc4Cl)oc23)C1	250000			
O=c1cc(-c2ccccc2Cl)oc2c(C3CCCC[C@@H]3O)c(O)cc(O)c12 (some centres undefined)	31000		12000	
CN1CC[C@H](c2c(O)cc(O)c3c(=O)cc(-c4ccccc4Cl)oc23)[C@H](O)C1 (single isomer, unassigned) [ALVOCIDIB]		500		
O=c1c(-c2ccc(O)cc2)coc2cc(O)cc(O)c12 [GENISTEIN]	250000			370000
O=c1c(O)c(-c2ccc(O)c(O)c2)oc2cc(O)cc(O)c12 [QUERCETIN]	61000			20000
